Like-named read-outs stand apart in the source and are kept apart here. Numbered stars: 1 amine (or outer) side, 2 acyl side, 3 side chain; on linkers, the order of the positions; unused ones are H or OH. Square brackets hold non-standard residues; d marks the D form. Side chains are listed from the residue outwards. Peptide text beside a SMILES is read from it. * marks the point of attachment. C18 diacid = O=C(O)CCCCCCCCCCCCCCCCC(=O)*; γGlu = O=C(O)[C@H](CCC(=O)[*:2])N[*:1]; Palmitoyl = CCCCCCCCCCCCCCCC(=O)*; αMeF = C[C@](N)(Cc1ccccc1)C(=O)O; αMeK = C[C@](N)(CCCCN)C(=O)O; Lauroyl = CCCCCCCCCCCC(=O)*; αMeS = C[C@](N)(CO)C(=O)O; AEEA = NCCOCCOCC(=O)O; Aib = CC(C)(N)C(=O)O A value given as a limit tells only on which side of the number the result lay.

Among the data in patent US10414811B2, “Protease-resistant lipidated GLP-1 analogs” (MEDIMMUNE LIMITED, priority 2015, dated 2019) are EC50 values, retold here.

Holding throughout (type): cell-based
Test [1] concerns the target T1, human glucagon receptor (GCGR) (Homo sapiens, UniProt P47871).
T1 construct: expressed in transfected cells
Briefly: cAMP assay, human GCGR cells. The procedure, abridged: (§1)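 Peptide-stimulated cAMP measured by two-step HTRF after a 30 min room-temperature incubation with receptor-expressing cells (hGLP-1R, hGIPR at 1×10^5 cells/ml; hGCGR at 2×10^5 cells/ml). Duplicate dilutions; EC50 from 4-parameter logistic fit of % Delta F.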
A general note: Changes in cAMP serve as a functional read-out for many G protein-coupled receptors.

The target in test [2] is T2, human GLP-1 receptor (GLP-1R) (Homo sapiens, UniProt P43220).
T2 construct: expressed in transfected cells
Briefly: cAMP assay, human GLP-1R cells. Here is the method: Sample dilutions are made in duplicate.
A frozen cryo-vial of cells expressing the receptor of interest is thawed rapidly in a water-bath, transferred to pre-warmed assay buffer and spun at 240×g for 5 minutes. Cells are re-suspended in assay buffer at a batch-dependent optimized concentration (e.g. hGCGR cells at 2×10^5 cells/ml, hGLP-1R and hGIPR cells at 1×10^5 cells/ml).
To this, 5 μL cell suspension is added and the plates incubated at room temperature for 30 minutes.
cAMP levels are measured using a commercially available cAMP dynamic 2 HTRF kit (Cisbio, Cat #62AM4PEJ), following the two step protocol as per manufacturer's recommendations. In brief; anti-cAMP cryptate (donor fluorophore) and cAMP-d2 (acceptor fluorophore) are made up separately by diluting each 1/20 in conjugate & lysis buffer provided in the kit. 5 μL anti-cAMP cryptate is added to wells of the assay plate, and 5 μL cAMP-d2 is added to wells except non-specific binding (NSB) wells, to which conjugate and lysis buffer are added. […] EC50 values of the synthetic peptides determined in cAMP assays are then determined.
Data is transformed to % Delta F as described in the manufacturer's guidelines and analyzed by 4-parameter logistic fit to determine EC50 values. […] To compare the balance of activities at the GLP-1R and GCGR between different peptides and across different conditions, these can be correlated, where the EC50's are related to those of comparator peptides.

The target in test [3] is T3, human glucose-dependent insulinotropic peptide receptor (GIPR) (Homo sapiens, UniProt P48546).
T3 construct: expressed in transfected cells
T3 sequence (P48546 22-466): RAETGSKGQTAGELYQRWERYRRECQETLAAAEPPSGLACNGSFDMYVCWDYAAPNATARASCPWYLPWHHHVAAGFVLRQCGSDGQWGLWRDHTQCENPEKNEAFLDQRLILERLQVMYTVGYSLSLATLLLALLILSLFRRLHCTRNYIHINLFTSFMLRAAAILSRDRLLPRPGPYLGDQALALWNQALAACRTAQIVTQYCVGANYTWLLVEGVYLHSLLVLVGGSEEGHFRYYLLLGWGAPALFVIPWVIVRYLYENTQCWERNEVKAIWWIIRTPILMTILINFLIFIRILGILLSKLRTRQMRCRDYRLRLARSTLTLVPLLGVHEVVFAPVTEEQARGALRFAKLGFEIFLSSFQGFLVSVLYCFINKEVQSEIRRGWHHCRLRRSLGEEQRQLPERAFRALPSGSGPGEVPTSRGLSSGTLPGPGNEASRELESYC
Nature of the test: cAMP assay, human GIPR cells. Put shortly: as §1

The mark [4] stands for this setting: cAMP assay, first determination (n1), read-out: Primary assay EC50 Gluc-R (n1).
Setting [5] is: cAMP assay, second determination (n2), read-out: Primary assay EC50 Gluc-R (n2).
Setting [6] is: cAMP assay, first determination (n1), read-out: Primary assay EC50 GLP-1R n1.
The mark [7] stands for this setting: cAMP assay, second determination (n2), read-out: Primary assay EC50 GLP-1R n2.
Setting [8] is: cAMP assay, first determination (n1), read-out: Primary assay EC50 GIP-R (n1).
[9] abbreviates: cAMP assay, second determination (n2), read-out: Primary assay EC50 GIP-R (n2).

T2 sequence (P43220 24-463): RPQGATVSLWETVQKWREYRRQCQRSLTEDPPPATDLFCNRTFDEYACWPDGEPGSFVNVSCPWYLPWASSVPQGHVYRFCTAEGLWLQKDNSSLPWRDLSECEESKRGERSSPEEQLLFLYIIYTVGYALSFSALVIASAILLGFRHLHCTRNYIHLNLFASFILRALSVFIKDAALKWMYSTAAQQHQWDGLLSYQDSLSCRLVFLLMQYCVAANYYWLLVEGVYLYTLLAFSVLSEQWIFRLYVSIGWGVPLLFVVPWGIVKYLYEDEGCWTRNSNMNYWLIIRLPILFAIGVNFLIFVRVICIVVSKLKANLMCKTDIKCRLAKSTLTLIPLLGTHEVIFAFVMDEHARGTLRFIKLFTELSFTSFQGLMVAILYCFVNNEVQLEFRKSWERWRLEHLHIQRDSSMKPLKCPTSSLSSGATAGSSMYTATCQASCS
T1 sequence (P47871 26-477): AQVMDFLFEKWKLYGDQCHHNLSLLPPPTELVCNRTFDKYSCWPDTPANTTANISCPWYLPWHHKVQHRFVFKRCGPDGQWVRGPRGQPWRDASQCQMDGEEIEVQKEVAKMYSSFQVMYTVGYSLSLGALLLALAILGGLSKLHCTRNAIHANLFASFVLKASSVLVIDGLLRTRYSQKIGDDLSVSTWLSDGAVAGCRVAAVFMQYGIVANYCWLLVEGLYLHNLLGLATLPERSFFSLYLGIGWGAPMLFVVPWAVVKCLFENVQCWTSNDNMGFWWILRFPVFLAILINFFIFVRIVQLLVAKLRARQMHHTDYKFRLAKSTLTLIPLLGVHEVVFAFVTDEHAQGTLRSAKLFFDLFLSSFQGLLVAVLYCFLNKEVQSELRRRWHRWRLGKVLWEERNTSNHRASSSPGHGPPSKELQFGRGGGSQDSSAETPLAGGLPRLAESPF

Take `CC[C@H](C)[C@H](NC(=O)[C@](C)(Cc1ccccc1)NC(=O)[C@H](CCC(=O)O)NC(=O)[C@](C)(CCCCN)NC(=O)[C@H](C)NC(=O)[C@H](C)NC(=O)[C@H](CCC(=O)O)NC(=O)CNC(=O)[C@H](CCC(=O)O)NC(=O)[C@H](CC(C)C)NC(=O)[C@](C)(Cc1ccccc1)NC(=O)[C@H](CO)NC(=O)[C@](C)(CO)NC(=O)[C@@H](NC(=O)[C@H](CC(=O)O)NC(=O)[C@H](CO)NC(=O)[C@@H](NC(=O)[C@](C)(Cc1ccccc1)NC(=O)[C@H](CO)NC(=O)[C@H](CCCCNC(=O)COCCOCCNC(=O)COCCOCCNC(=O)CC[C@H](NC(=O)CCCCCCCCCCCCCCCCC(=O)O)C(=O)O)NC(=O)[C@H](CCC(=O)O)NC(=O)C(C)(C)NC(=O)[C@@H](N)Cc1c[nH]cn1)[C@@H](C)O)C(C)C)C(=O)N[C@@H](C)C(=O)N[C@@](C)(Cc1ccccc1)C(=O)N[C@H](C(=O)N[C@H](C(=O)N[C@@](C)(CCCCN)C(=O)NCC(=O)NCC(N)=O)C(C)C)C(C)C` [compound 125] (H-H[Aib]EK([AEEA-AEEA-γGlu-C18 diacid])S[αMeF]TSDV[αMeS]S[αMeF]LEGEAA[αMeK]E[αMeF]IA[αMeF]VV[αMeK]GG-NH2; N-terminus assumed): the EC50 was at least 25 nM in test [1] (setting [4]); at least 24.9 nM in test [1] (setting [5]); at least 25000 pM in test [2] (setting [6]); at least 24900 pM in test [2] (setting [7]); at least 25 nM in test [3] (setting [8]); at least 24.9 nM in test [3] (setting [9]).
For `CC[C@H](C)[C@H](NC(=O)[C@](C)(Cc1ccccc1)NC(=O)[C@H](CCC(=O)O)NC(=O)[C@](C)(CCCCN)NC(=O)[C@H](C)NC(=O)[C@H](C)NC(=O)[C@H](CCC(=O)O)NC(=O)CNC(=O)[C@H](CCC(=O)O)NC(=O)[C@H](CC(C)C)NC(=O)[C@](C)(Cc1ccccc1)NC(=O)[C@H](CO)NC(=O)[C@](C)(CO)NC(=O)[C@@H](NC(=O)[C@H](CC(=O)O)NC(=O)[C@](C)(CO)NC(=O)[C@@H](NC(=O)[C@](C)(Cc1ccccc1)NC(=O)[C@H](CO)NC(=O)CNC(=O)[C@H](CCC(=O)O)NC(=O)C(C)(C)NC(=O)[C@@H](N)Cc1c[nH]cn1)[C@@H](C)O)C(C)C)C(=O)N[C@@H](C)C(=O)N[C@@](C)(Cc1ccccc1)C(=O)N[C@H](C(=O)N[C@H](C(=O)N[C@@](C)(CCCCN)C(=O)NCC(=O)NCC(N)=O)C(C)C)C(C)C` [compound 18], the EC50 in test [1] (setting [4]) was at least 100 nM; in test [1] (setting [5]) it was at least 100 nM; in test [2] (setting [6]), 4100 pM; in test [2] (setting [7]), 5800 pM; in test [2] (mean of n1 and n2, read-out: Mean pM GLP-1R), 4940 pM; in test [3] (setting [8]), at least 100 nM. In test [3] (setting [9]), the EC50 was at least 100 nM.
In the case of `CC[C@H](C)[C@H](NC(=O)[C@](C)(Cc1ccccc1)NC(=O)[C@H](CCC(=O)O)NC(=O)[C@H](CCCCNC(=O)CC[C@H](NC(=O)CC[C@H](NC(=O)CCCCCCCCCCCCCCCCC(=O)O)C(=O)O)C(=O)O)NC(=O)[C@H](C)NC(=O)[C@H](C)NC(=O)[C@H](CCC(=O)O)NC(=O)CNC(=O)[C@H](CCC(=O)O)NC(=O)[C@H](CC(C)C)NC(=O)[C@](C)(Cc1ccccc1)NC(=O)[C@H](CO)NC(=O)[C@](C)(CO)NC(=O)[C@@H](NC(=O)[C@H](CC(=O)O)NC(=O)[C@H](CO)NC(=O)[C@@H](NC(=O)[C@](C)(Cc1ccccc1)NC(=O)[C@H](CO)NC(=O)CNC(=O)[C@H](CCC(=O)O)NC(=O)C(C)(C)NC(=O)[C@@H](N)Cc1c[nH]cn1)[C@@H](C)O)C(C)C)C(=O)N[C@@H](C)C(=O)N[C@@](C)(Cc1ccccc1)C(=O)N[C@H](C(=O)N[C@H](C(=O)N[C@@](C)(CCCCN)C(=O)NCC(=O)NCC(N)=O)C(C)C)C(C)C` [compound 156], the EC50 in test [1] (setting [4]), in test [1] (setting [5]), in test [3] (setting [8]) and in test [3] (setting [9]) was at least 27 nM each time.
For the molecule `CCCCCCCCCCCC(=O)N[C@@H](CCC(=O)NCCOCCOCC(=O)NCCOCCOCC(=O)NCCCC[C@H](NC(=O)[C@H](CC(=O)O)NC(=O)[C@H](CO)NC(=O)[C@@H](NC(=O)[C@](C)(Cc1ccccc1)NC(=O)[C@H](CO)NC(=O)CNC(=O)[C@H](CCC(=O)O)NC(=O)C(C)(C)NC(=O)[C@@H](N)Cc1c[nH]cn1)[C@@H](C)O)C(=O)N[C@@H](CO)C(=O)N[C@@H](CO)C(=O)N[C@@H](Cc1ccc(O)cc1)C(=O)N[C@@H](CC(C)C)C(=O)N[C@@H](CCC(=O)O)C(=O)NCC(=O)N[C@@H](CCC(=O)O)C(=O)N[C@@H](C)C(=O)N[C@@H](C)C(=O)N[C@@](C)(CCCCN)C(=O)N[C@@H](CCCCNC(=O)COCCOCCNC(=O)COCCOCCNC(=O)CC[C@H](NC(=O)CCCCCCCCCCC)C(=O)O)C(=O)N[C@@H](Cc1ccccc1)C(=O)N[C@H](C(=O)N[C@@H](C)C(=O)N[C@@H](Cc1ccccc1)C(=O)N[C@@H](CCCCNC(=O)COCCOCCNC(=O)COCCOCCNC(=O)CC[C@H](NC(=O)CCCCCCCCCCC)C(=O)O)C(=O)N[C@H](C(=O)N[C@@H](CCC(=O)O)C(=O)NCC(=O)NCC(N)=O)C(C)C)[C@@H](C)CC)C(=O)O` [compound 474] (H-H[Aib]EGS[αMeF]TSDK([AEEA-AEEA-γGlu-Lauroyl])SSYLEGEAA[αMeK]K([AEEA-AEEA-γGlu-Lauroyl])FIAFK([AEEA-AEEA-γGlu-Lauroyl])VEGG-NH2; N-terminus assumed), the EC50 stood at 19.9 nM in test [1] (tris-lipidated peptides, second replicate, read-out: Primary assay EC50 Gluc-R (n2)) and 19.9 nM in test [3] (tris-lipidated peptides, first replicate, read-out: Primary assay EC50 GIP-R (n1)).
As for `CCCCCCCCCCCCCCCC(=O)N[C@@H](CCC(=O)NCCCC[C@H](NC(=O)[C@](C)(Cc1ccccc1)NC(=O)[C@H](CCC(=O)O)NC(=O)[C@](C)(CCCCN)NC(=O)[C@H](C)NC(=O)[C@H](C)NC(=O)[C@H](CCC(=O)O)NC(=O)CNC(=O)[C@H](CCC(=O)O)NC(=O)[C@H](CC(C)C)NC(=O)[C@](C)(Cc1ccccc1)NC(=O)[C@H](CO)NC(=O)[C@](C)(CO)NC(=O)[C@@H](NC(=O)[C@H](CC(=O)O)NC(=O)[C@H](CO)NC(=O)[C@@H](NC(=O)[C@](C)(Cc1ccccc1)NC(=O)[C@H](CO)NC(=O)CNC(=O)[C@H](CCC(=O)O)NC(=O)C(C)(C)NC(=O)[C@@H](N)Cc1c[nH]cn1)[C@@H](C)O)C(C)C)C(=O)N[C@@H](C)C(=O)N[C@@](C)(Cc1ccccc1)C(=O)N[C@H](C(=O)N[C@H](C(=O)N[C@@](C)(CCCCN)C(=O)NCC(=O)NCC(N)=O)C(C)C)C(C)C)C(=O)O` [compound 77] (H-H[Aib]EGS[αMeF]TSDV[αMeS]S[αMeF]LEGEAA[αMeK]E[αMeF]K([γGlu-Palmitoyl])A[αMeF]VV[αMeK]GG-NH2), the EC50 in test [1] (setting [4]), in test [1] (setting [5]), in test [3] (setting [8]) and in test [3] (setting [9]) was at least 28 nM throughout.
Consider `CC[C@H](C)[C@H](NC(=O)[C@H](Cc1ccccc1)NC(=O)[C@H](CCC(=O)O)NC(=O)[C@H](CCCCN)NC(=O)[C@H](C)NC(=O)[C@H](C)NC(=O)[C@H](CCC(N)=O)NC(=O)CNC(=O)[C@H](CCC(=O)O)NC(=O)[C@H](CC(C)C)NC(=O)[C@H](Cc1ccc(O)cc1)NC(=O)[C@H](CO)NC(=O)C(C)(C)NC(=O)[C@@H](NC(=O)[C@H](CC(=O)O)NC(=O)[C@H](CO)NC(=O)[C@@H](NC(=O)[C@H](Cc1ccccc1)NC(=O)[C@@H](NC(=O)CNC(=O)[C@H](CCC(=O)O)NC(=O)C(C)(C)NC(=O)[C@@H](N)Cc1c[nH]cn1)[C@@H](C)O)[C@@H](C)O)C(C)C)C(=O)N[C@@H](C)C(=O)N[C@@H](Cc1c[nH]c2ccccc12)C(=O)N[C@@H](CC(C)C)C(=O)N[C@H](C(=O)N[C@@H](CCCCN)C(=O)NCC(=O)N[C@@H](CCCNC(=N)N)C(N)=O)C(C)C` [compound 22] (H-H[Aib]EGTFTSDV[Aib]SYLEGQAAKEFIAWLVKGR-NH2; N-terminus assumed), for which the EC50 worked out at 390 nM in test [1] (setting [4]), 240 nM in test [1] (setting [5]), 480 nM in test [3] (setting [8]) and 480 nM in test [3] (setting [9]).
